SMILES strings stand for the structures. “Also recorded” adds a separate entry of the source.

One series concerns neutrophil cytosol. The series is described as follows: UCA metabolism in neutrophil cytosol (TCA precipitation, scintillation counting, HPLC). The format is in vitro ADME, human.
The test system of series [1] is neutrophils. Briefly: Monitoring of intracellular pH (BCECF flow cytometry, nigericin calibration). The format is cell-based, human. The note with it: for effect on intracellular BCECF signal: extracellular pH adjusted to 7.4. The method, then:
Intracellular pH levels in neutrophils were monitored with flow cytometry utilizing a pH-sensitive fluorescent dye 2′,7′-bis-(2-carboxyethyl)-5-(and-6)-carboxyfluorescein (BCECF, acetoxymethyl ester; Molecular Probes, Leiden, The Netherlands). About 30×10^6 cells were incubated in 10 ml HBSS, pH 7.4, containing 0.35 μM BCECF at 25° C. for 30 min, washed twice in HBSS, and resuspended in 1 ml of 154 mM NaCl. Aliquot (235 μl) of the incubation medium with known UCA concentrations and checked pH was applied to the cells (4.5×10^5 cells/15 μl NaCl) in polystyrene tubes, incubated at 25° C. for about 20 min, and analyzed in a flow cytometer.
Calibration of intracellular pH was performed in situ using the K^+/H^+ ionophore nigericin. An excess of pH calibration buffers (10 mM Pipes, 131 mM KCl, pH adjusted to 6.10, 6.50, 6.80, 7.10, 7.40, and 7.60 or 7.70) and 10 μM nigericin was added to the BCECF-labelled cells in 154 mM NaCl. The cells were kept at room temperature and analysed by flow cytometry within 45 min. Cells incubated with or without UCA were analysed for intracellular pH simultaneously. The pH was adjusted to the same values as those in the calibration buffers. Intracellular pH was determined from a BCECF fluorescence intensity calibration curve.
On the technique in general: A flow cytometer gives signals particle by particle.

For series [2], the system named is neutrophils. Briefly: Respiratory burst activity, opsonized zymosan-induced chemiluminescence. In kind it is cell-based, human. The note with it: 3 mM UCA. The method, then:
The respiratory burst activity was used as a measure of neutrophil function. The UCA isomers were tested in a chemiluminescence assay with opsonized zymosan as described (Kivistö et al. 1996). The peak values were recorded.
To examine how the cytosol-acidifying effect of UCA correlates with the previously reported inhibition of neutrophil respiratory burst activity, we measured the effect of 3 mM UCA on opsonized zymosan-induced chemiluminescence by the same batch of neutrophils and in the same experimental conditions described above, i.e. when the pH of the test solution was adjusted back to its initial level after UCA addition. […] In the same conditions, cis-UCA suppressed the respiratory burst activity by 15%±8.4% and 44%±1.3%, respectively. […] The corresponding inhibitions for cis-UCA were 41%±10% at pH 6.60±0.02 (nominal pH 7.4) and 48%±1.6% at pH 6.33±0.07 (nominal pH 6.5).

Series [3] can be described thus: pH effect of UCA isomers on incubation buffers. The format is physicochemical. The note with it: for pH of test solution after UCA supplementation: 3 mM UCA, unadjusted; for effect on pH of HBSS buffer: HBSS adjusted to pH 6.5 prior to UCA addition. An excerpt: As such, UCA resembles small ions (e.g., K^+, Na^+, H^+, […]) which enter the cell and modulate cell functions by altering the physico-chemical micro-environment (pH, ion potential, ion strength) of the cytosol. Therefore, we hypothesized that the high levels of intact UCA may provoke cellular changes simply due to its passive presence in the cytosol as an acid. […] Such a possibility was approached by testing the effect of UCA on pH first in a buffer solution and then in intact cells. […]

A short description of series [4]: Protonation state calculated with the Henderson-Hasselbalch Equation. The settings on record: pH 6.5. From the text: It can be hypothesized that the ability of UCA to acidify cytosol in living cells depends on two major parameters: the pH of the extracellular space and the initial pH of the cytosol. Because UCA is found mainly in the skin, one should consider these two parameters in the context of the physiological environment. It is well known that the human skin has an acid mantle with a surficial pH around 4-6. When the stratum corneum is stripped layer by layer, the pH increases gradually and, after total removal of the stratum corneum, the pH in the remaining epidermis is about 6.9 (Öhman & Vahlquist, 1994). In deeper layers, the almost neutral pH of the interior body is reached. A recent analysis provides evidence that UCA is the major pH-regulating factor in the human stratum corneum (Krien & Kermici 2000). The majority of UCA resides in the stratum corneum; however, a significant amount of UCA diffuses into and evidently also through the (epi)dermis, because elevated levels of cis-UCA can be detected in the urine within 1-4 h following total-body UVB exposure (Kammayer et al. 1997). […] In contrast, at a pH below the imidazolyl pKa's, UCA would be mainly in the protonated form capable of promoting cytosolic acidification upon cell entry. […] To provide experimental support for these hypotheses, we measured the change in cytosolic pH in UCA-treated cells. […]

The conditions of series [5]: cited from earlier work; for imidazolyl pKa: Roberts et al. 1982, Krien & Kermici 2000.
The test system of the next series is histamine receptors. The settings on record: Laihia, 1998; cited from earlier work.
[6] abbreviates: 3 mM UCA, extracellular pH 6.1-7.7, effect below pH 7.
Setting [7] is: pH left unadjusted, nominal pH 6.5.
[8] abbreviates: pH left unadjusted, nominal pH 7.4.

Method for neutrophil cytosol: An aminopropyl stationary phase column Lichrosorb NH2, Hibar RT, 250×4 mm, 5 μm (Merck, Darmstadt, Germany) was used. The eluent was a 50% (v/v) mixture of acetonitrile and a solution of 2% (v/v) acetic acid and 0.5% (w/v) ammonium acetate in water (pH ca. 5). The isomers were detected at 268 nm, and the retention times were Tr(cis) 3.7 min and Tr(trans) 5.4 min.
Samples were mixed with OptiPhase HiSafe 2 scintillation liquid (EG&G Wallac, Turku, Finland) and [^14C]UCA radioactivity measured in RackBeta 1214 scintillation counter (EG&G Wallac). The counting efficiency was 96.7%±0.12% (mean±SEM, n=48).
Next, we examined whether the [^14C]UCA in the cytosol was metabolized by neutrophils after the uptake by determining how much of the radioactive label was associated with intact UCA. This was carried out by precipitating the cytosolic proteins of [^14C]UCA-labeled neutrophils with 10% trichloracetic acid (TCA) on ice overnight. The amount of radioactive label was then measured both in the precipitate and in the protein-free supernatant by scintillation counting, and the content of intact UCA in the supernatant by HPLC.

As to `O=C(O)/C=C\c1c[nH]cn1` [cis-UCA, cis-urocanic acid], the “recovery of [14C]UCA activity in protein-free supernatant” value with neutrophil cytosol (10% TCA precipitation of cytosolic proteins, cis n=9, trans n=4) is recorded as 102%±3.9%. Moreover, the “effect on intracellular pH (nigericin calibration)” value is “much smaller effect” with neutrophils [1] (0.3 mM UCA, same pH range) and “lowers the intracellular pH” in the series on neutrophils [1] (setting [6]). For the same compound, the “effect on intracellular BCECF signal” value with neutrophils [1] (3 mM UCA) is “no significant effect”. Besides, the “inhibition of respiratory burst chemiluminescence” value is given as 44%±1.3% in the series on neutrophils [2] (pH adjusted back to 6.5, n=3); 15%±8.4% in the series with neutrophils [2] (pH adjusted back to 7.4); 48%±1.6% in the series with neutrophils [2] (setting [7]); 41%±10% in the series with neutrophils [2] (setting [8]). The results for the “pH of test solution after UCA supplementation” value in series [3] (nominal pH 6.5) and in series [3] (nominal pH 7.4) were 6.33±0.07 and 6.60±0.02, respectively. Moreover, the “effect on pH of HBSS buffer” value in series [3] is “almost no effect”. In series [4], the “fraction in protonated state” value was “over 70%”. In addition, the “pKa of the carboxyl group” value in series [5] (Roberts 1982) is roughly 3.3. For the same compound, in series [5], the “imidazolyl pKa” value is roughly 7.0. For the same compound, the “binding to histamine receptors” value in the series on histamine receptors was “does not directly bind”.
On to `O=C(O)C=Cc1c[nH]cn1` [trans-UCA, 3-(1H-imidazol-4-yl)-2-propenoic acid, reference compound], for which the “recovery of [14C]UCA activity in protein-free supernatant” value with neutrophil cytosol (human) is listed as 100.2%±0.9%. The “effect on intracellular pH (nigericin calibration)” value in the series on neutrophils [1] (setting [6]) is recorded as “only a minor effect”. The “effect on intracellular BCECF signal” value in the series with neutrophils [1] (3 mM UCA) is recorded as “no significant effect”. Also, the “inhibition of respiratory burst chemiluminescence” value in the series on neutrophils [2] (pH adjusted back to 6.5, n=3) was 14%±4.0%; in the series on neutrophils [2] (pH adjusted back to 7.4), “no effect”; in the series on neutrophils [2] (setting [7]) it was 48%±4.0%; in the series with neutrophils [2] (setting [8]), 31%±8.4%. For the same compound, the “pH of test solution after UCA supplementation” value in series [3] (nominal pH 6.5) was 5.87±0.06; in series [3] (nominal pH 7.4), 6.22±0.02. Moreover, the “effect on pH of HBSS buffer” value in series [3] is reported as “markedly reduce the pH; also recorded: dropped the pH”. Moreover, in series [4], the “fraction in deprotonated state” value was 70%. Also, the “imidazolyl pKa” value in series [5] is on record as roughly 6.1.
